# Test results published in patent publication US9580458B2, “Polymorphic form of sodium hyodeoxycholate (NaHDC) and its preparation process” (PRODOTTI CHIMICI E […].P.A., priority 2013, dated 2017).
# Entries after “also recorded” stand apart in the source; their conditions may differ.
# Key:
# Format in all cases: physicochemical
# [1] = Dynamic vapour sorption (DVS) analysis in isotherm at 25° C.; details: for water still contained at the inflection at about 40% RH in desorption / weight change preserved in desorption up to 50% RH / change in weight in sorption at 20% RH / weight change in sorption at 70% RH / weight change in sorption at 90% RH / weight change at 0% RH in desorption / weight change in sorption at 30% RH: DVS isotherm 25° C.; for water still contained at the inflection at about 40% RH in desorption: about 40% RH (corresponds to about 4 water molecules); for weight change preserved in desorption up to 50% RH: stable up to 50% RH (corresponds to about 8 water molecules)
# Procedure: (§1) To check the stability of the samples DVS (Dynamic vapour sorption) measurements were made using the DVS Intrinsic SMS instrument. The weight change of the sample associated with the change in humidity in a chamber at constant temperature was determined. Each sample was weighed in a range from […], with mass change equal to ±150 mg and mass resolution equal to ±0.1 μg, and positioned in the instrument and analysed at 25° C.±0.1 and 40° C.±0.1 in a relative humidity range comprised between 0% RH and 90% RH with increments of 10% RH, accuracy equal to ±1% RH. Moreover, the sample is brought from 0-90-0% RH with stages of 10% RH. The duration of these stages is as a function of the stabilization of the weight: if the weight change remains less than 0.002 dm (%)/dt (min) for 10 min, it goes on to the next stage. However, the stabilization for each stage cannot last more than 6 hours and in that case the instrument passes on to the next stage. The last stage contemplates the stabilization of the sample at 0% RH for 4 hours.
# In order to verify the stability of the samples DVS (Dynamic vapour sorption) measurements were carried out using the DVS Intrinsic SMS instrument. The weight change of the sample associated with the change in humidity in a chamber at constant temperature was determined. Each sample was positioned in the instrument and analysed at 25° C.±0.1 in a humidity range that ranges from 0% to 90% RH with increments of 10% RH, RH accuracy equal to ±1% RH. The sample is stabilized at 0% RH for 4 hours. The duration of the single stages is as a function of the stabilization of the weight: if the weight change remains less than 0.002 dm (%)/dt (min) for 10 min, it goes on to the next stage. The stabilization cannot last more than 6 hours and in that case it passes on to the next stage. The last stage contemplates the stabilization of the sample at 0% RH for 4 hours.
# (§2) To check the stability of the samples DVS (Dynamic vapour sorption) measurements were made using the DVS Intrinsic SMS instrument. The weight change of the sample associated with the change in humidity in a chamber at constant temperature was determined. Each sample was positioned in the instrument and analysed at 25° C.±0.1 in a humidity range from 0% RH to 90% RH with increments of 10% RH, accuracy equal to ±1% RH. The sample is stabilized at 0% RH for 4 hours. The duration of the single stages is as a function of the stabilization of the weight: if the weight change remains less than 0.002 dm (%)/dt (min) for 10 min, it goes on to the next stage. The stabilization cannot last more than 6 hours and in that case it passes on to the next stage. The last stage contemplates the stabilization of the sample at 0% RH for 4 hours.
# [2] = Dynamic vapour sorption (DVS) analysis in isotherm at 40° C.; details: DVS isotherm 40° C.
# Procedure: as §1
# as §2, with “Each sample is positioned in” for “Each sample was positioned in”, “analysed at 40° C.±0.1 in” for “analysed at 25° C.±0.1 in”, “from 0% to 90%” for “from 0% RH to 90%”, “10% RH, RH accuracy equal” for “10% RH, accuracy equal”, “of the weight, if the” for “of the weight: if the”
# [3] = Reprecipitation of FI/FII 1:1 (w/w) in ethyl acetate, 48 hours at 25° C., XPRD of the solid
# Procedure: Into a 2 liter jacketed reactor 1000 ml of ethyl acetate (EtOAc) is loaded, the mechanical stirrer is actuated setting the rate to 200 rpm and then 25 g of polymorphic form FI and 25 g of polymorphic form FII are slowly added. It is left under stirring for 48 hours at a temperature of 25° C.
# It is filtered on buckner and the white solid obtained is washed with 50 ml of EtOAc (1 Volume with respect to the loaded total dry solid NaHDC polymorphic form FI and NaHDC polymorphic form FII).
# [4] = Thermal stability by DSC and XPRD at variable temperature; details: for temperature up to which the form is stable: DSC / XPRD at variable temperature
# Procedure: The thermal properties of the polymorphic forms described were obtained through differential scanning calorimetry (DSC). The DSC profiles were obtained with a heat flow instrument DSC 200 F3 Maia® (Netzsch). The DSC 200 F3 Maia® instrument was calibrated for temperature and enthalpy with an indium standard (melting point: 156.6° C.; ΔHf=28.45 Jg^−1). The samples were analysed according to the following conditions: • temperature range: 25-350° C.; • heating rate: 10° C./min; • sample-holder: perforated aluminium crucible; • gas: anhydrous nitrogen at a flow rate of 60 mL/min.
# In order to determine the X-ray powder diffraction profiles (XPRD) a diffractometer Panalytical X'Pert Pro equipped with detector X'Celerator and X-ray tube (PW3373/00 Cu LFF DK312503) with current intensity 40 mA and voltage 40 kV was used. The instrument was calibrated with a silicon powder standard PANalytical640. The sample was positioned on a glass sample-carrier and analysed using the following parameters: • Scanning range(°): 3.0010-39.9997 • Data acquisition range(°): 0.0167 • Scanning mode: Continuous • Counter time (s): 12,700 • soller slits (rad): 0.04 • divergence slits: ¼ • anti-scatter slits: ½
# [5] = Stability tests according to guidelines ICH Q1A at 25° C./60% RH and 40° C./75% RH
# [6] = Stability of the polymorphic form in the formulation of a medicinal product; details: inserted into the formulation of a medicinal product
# [7] = listed as mixture of forms of NaHDC
Compound,water still contained at the inflection at about 40% RH in desorption [1],weight change preserved in desorption up to 50% RH [1],weight change in sorption at 90% RH [1],weight change at 0% RH in desorption [1],weight change in sorption at 30% RH [1],weight change at 0% RH in desorption ([2]; desorption),weight change in sorption at 70% RH ([2]; sorption),weight change in sorption at 90% RH ([2]; sorption),temperature up to which the form is stable [4],weight change in sorption at 70% RH [1],other results
"C[C@H](CCC(=O)[O-])[C@H]1CC[C@H]2[C@@H]3C[C@H](O)[C@@H]4C[C@H](O)CC[C@]4(C)[C@H]3CC[C@]12C.[Na+] [NaHDC mixture, sodium 3α,6α-dihydroxy-5β,-cholan-24-oate]",about 18%,about 34%,about 35%,–,–,–,–,–,–,–,"water still contained at the inflection at about 40% RH in desorption [1, 7]: about 18%; change in weight in sorption at 20% RH [1]: about 3%; change in weight in sorption at 20% RH [1, 7]: about 3%; weight change in sorption at 70% RH [1, 7]: 15%"
"C[C@H](CCC(=O)[O-])[C@H]1CC[C@H]2[C@@H]3C[C@H](O)[C@@H]4C[C@H](O)CC[C@]4(C)[C@H]3CC[C@]12C.[Na+] [polymorphic form FI, sodium 3α,6α-dihydroxy-5β,-cholan-24-oate]",about 18%,about 34%,about 35%,zero,about 2%,zero,8%,about 43%,280 °C,–,"change in weight at the plateau at 50-40% RH in desorption ([2]; desorption, 50-40% RH): about 17%; weight change in sorption at 30% RH ([2]; sorption, 30% RH): about 2%; interconversion of the polymorphic form on reprecipitation ([3]; FI and FII 1:1 weight/weight, ethyl acetate, 48 hours, room temperature (20-25° C.)): completely converts into the polymorphic form FII; also recorded: interconverts into the polymorphic form FII"
"C[C@H](CCC(=O)[O-])[C@H]1CC[C@H]2[C@@H]3C[C@H](O)[C@@H]4C[C@H](O)CC[C@]4(C)[C@H]3CC[C@]12C.[Na+] [polymorphic form FII, sodium 3α,6α-dihydroxy-5β,-cholan-24-oate]",about 18%,about 34%,about 35%,zero,–,about 6%,less than 2%,about 45%,260 °C,less than 2%,"hygroscopic behaviour ([1]; humidity sorption cycle in isotherm at 25° C. and at 40° C. (FIGS. 10-13, 27, 28, 58)): non-hygroscopic; shape of the desorption curve at 50-40% RH ([2]; desorption, 50-40% RH): plateau; relative humidity up to which the sample is stable in sorption ([2]; sorption): about 70 % RH; stability with regard to humidity in ICH Q1A tests [5]: surprising and unforeseeable stability with regard to humidity both at 25 °C and at 40 °C; stability over time in the formulation (interconversion into other polymorphic forms) [6]: stable over time; thermodynamic stability among the forms ([3]; room temperature): most thermodynamically stable one at room temperature and up to 260 °C; also recorded: most thermodynamically stable form at room temperature; temperature of conversion into the polymorphic form FI on heating ([4]; heating, solid-solid conversion into form FI): 280 °C"
"C[C@H](CCC(=O)[O-])[C@H]1CC[C@H]2[C@@H]3C[C@H](O)[C@@H]4C[C@H](O)CC[C@]4(C)[C@H]3CC[C@]12C.[Na+] [amorphous form of NaHDC, sodium 3α,6α-dihydroxy-5β,-cholan-24-oate]",about 17%,about 34%,about 35%,weight that is less than the starting weight,about 6%,–,–,–,–,22%,–
